Assay results as given in patent US6683027B2, “Herbicidal mixtures” (BASF Aktienegesellschaft, priority 2000, dated 2004).

Assays:
Format in all cases: in vivo
[1] = system: Galium aparine; assay: greenhouse pre-emergence trial, percent damage vs untreated control 21 days after treatment; conditions: GALAP
[2] = system: Papaver rhoeas; assay: greenhouse post-emergence trial, percent damage vs untreated control 21 days after treatment; conditions: PAPRH, Example 1B
Method: (§1) The trials are carried out under greenhouse conditions in pre- and post-emergence applications. The plant seeds are sown in pots containing a loamy sand soil (0.5 l). The herbicides are applied as single treatments, or in a combination comprising a compound of formula I and compound selected from group (2) as defined above, before or after emergence of weeds and crop. The herbicidal performance is assessed as percent damage in comparison to the untreated control plants. The assessment is done 21 days after the treatment. Wheat and barley are treated at the 3-4 leaf stage, the broad-leaf weeds at the 2-4 leaf stage and annual grasses at the 2-3 leaf stage.

[3] = system: Matricaria inodora; assay: as above; conditions: MATIN
Method: as §1

[4] = system: Lolium perenne; assay: as above; conditions: LOLPE
Method: as §1

[5] = system: Alopecurus myosuroides; assay: as above; conditions: ALOMY
Method: as §1

[6] = system: Lamium purpureum; assay: as above; conditions: LAMPU
Method: as §1

[7] = system: Veronica persica; assay: as above; conditions: 3.75 g/ha, VERPE, Example 1B
Method: as §1

[8] = system: Stellaria media; assay: as above; conditions: STEME
Method: as §1

[9] = system: Setaria viridis; assay: as above; conditions: SETVI
Method: as §1

[10] = system: Apera spica-venti; assay: as above; conditions: APESV
Method: as §1

[11] = system: Lolium perenne; assay: greenhouse pre-emergence trial, percent damage vs untreated control 21 days after treatment; conditions: 3.75 g/ha, LOLPE
[12] = system: Alopecurus myosuroides; assay: as above; conditions: ALOMY
[13] = system: Stellaria media; assay: as above; conditions: STEME
[14] = system: Lamium purpureum; assay: as above; conditions: 3.75 g/ha, LAMPU, Example 1A
[15] = system: Matricaria inodora; assay: as above; conditions: 3.75 g/ha, MATIN, Example 2
[16] = system: Veronica persica; assay: as above; conditions: VERPE
[17] = system: Papaver rhoeas; assay: as above; conditions: PAPRH

`FC(F)(F)c1ccc(-c2nccc(Oc3cccc(C(F)(F)F)c3)n2)cc1` [Compound A, 4-(3-trifluoromethylphenoxy)-2-(4-trifluoromethylphenyl)-pyrimidine] was tested, and the “Compound A alone (% control)” value ([1]; 3.75 g/ha, Example 1A) was 0%, the “Compound A alone (% control)” value ([1]; 3.75 g/ha, Example 2) was 0% and the “Compound A alone (% control)” value ([1]; 7.5 g/ha, Example 2) was 0%. For the same molecule, the “Compound A alone (% control)” value ([1]; 15 g/ha, Example 2) was 10%, the “Compound A alone (% control)” value ([1]; 15 g/ha, Example 3) was 0% and the “Compound A alone (% control)” value ([1]; 30 g/ha, Example 3) was 0%. For the same molecule, the “Compound A alone (% control)” value ([1]; 60 g/ha, Example 3) was 10%, the “Compound A alone (% control)” value ([2]; 3.75 g/ha) was 30% and the “Compound A alone (% control)” value ([2]; 7.5 g/ha) was 65%. The “Compound A alone (% control)” value ([3]; 3.75 g/ha, Example 10) was 5%, the “Compound A alone (% control)” value ([3]; 7.5 g/ha, Example 10) was 13% and the “Compound A alone (% control)” value ([3]; 7.5 g/ha, Example 13) was 15%. For the same molecule, the “Compound A alone (% control)” value ([3]; 15 g/ha, Example 9) was 48%, the “Compound A alone (% control)” value ([3]; 15 g/ha, Example 10) was 30% and the “Compound A alone (% control)” value ([4]; 3.75 g/ha, Example 1B) was 10%. The “Compound A alone (% control)” value ([4]; 3.75 g/ha, Example 12) was 0%, the “Compound A alone (% control)” value ([4]; 7.5 g/ha, Example 1B) was 28% and the “Compound A alone (% control)” value ([4]; 7.5 g/ha, Example 4) was 23%. For the same molecule, the “Compound A alone (% control)” value ([4]; 15 g/ha, Example 1B) was 50%, the “Compound A alone (% control)” value ([4]; 15 g/ha, Example 5) was 23% and the “Compound A alone (% control)” value ([4]; 30 g/ha, Example 6) was 60%. For the same molecule, the “Compound A alone (% control)” value ([4]; 30 g/ha, Example 7) was 65%, the “Compound A alone (% control)” value ([4]; 30 g/ha, Example 13) was 28% and the “Compound A alone (% control)” value ([4]; 60 g/ha, Example 7) was 75%. For the same molecule, the “Compound A alone (% control)” value ([4]; 60 g/ha, Example 8) was 75%, the “Compound A alone (% control)” value ([4]; 60 g/ha, Example 11) was 40% and the “Compound A alone (% control)” value ([4]; 60 g/ha, Example 13) was 63%. The “Compound A alone (% control)” value ([5]; 3.75 g/ha, Example 1B) was 10%, the “Compound A alone (% control)” value ([5]; 3.75 g/ha, Example 12) was 0% and the “Compound A alone (% control)” value ([5]; 3.75 g/ha, Example 13) was 3%. The “Compound A alone (% control)” value ([5]; 7.5 g/ha, Example 1B) was 28%, the “Compound A alone (% control)” value ([5]; 7.5 g/ha, Example 4) was 23% and the “Compound A alone (% control)” value ([5]; 7.5 g/ha, Example 5) was 3%. For the same molecule, the “Compound A alone (% control)” value ([5]; 7.5 g/ha, Example 13) was 5%, the “Compound A alone (% control)” value ([5]; 15 g/ha, Example 1B) was 45% and the “Compound A alone (% control)” value ([5]; 15 g/ha, Example 4) was 28%. The “Compound A alone (% control)” value ([5]; 15 g/ha, Example 5) was 8%, the “Compound A alone (% control)” value ([5]; 15 g/ha, Example 12) was 0% and the “Compound A alone (% control)” value ([5]; 15 g/ha, Example 13) was 8%. For the same molecule, the “Compound A alone (% control)” value ([5]; 30 g/ha, Example 4) was 50%, the “Compound A alone (% control)” value ([5]; 30 g/ha, Example 5) was 23% and the “Compound A alone (% control)” value ([5]; 30 g/ha, Example 12) was 10%. The “Compound A alone (% control)” value ([5]; 30 g/ha, Example 13) was 15%, the “Compound A alone (% control)” value ([5]; 30 g/ha, Example 14) was 15% and the “Compound A alone (% control)” value ([5]; 60 g/ha, Example 5) was 28%. For the same molecule, the “Compound A alone (% control)” value ([5]; 60 g/ha, Example 13) was 43%, the “Compound A alone (% control)” value ([5]; 60 g/ha, Example 14) was 33% and the “Compound A alone (% control)” value ([6]; 3.75 g/ha, Example 4) was 20%. For the same molecule, the “Compound A alone (% control)” value ([6]; 3.75 g/ha, Example 7) was 20%, the “Compound A alone (% control)” value ([6]; 3.75 g/ha, Example 8) was 20% and the “Compound A alone (% control)” value ([6]; 3.75 g/ha, Example 12) was 35%. The “Compound A alone (% control)” value ([6]; 7.5 g/ha, Example 7) was 35%, the “Compound A alone (% control)” value ([6]; 7.5 g/ha, Example 8) was 35% and the “Compound A alone (% control)” value ([6]; 7.5 g/ha, Example 12) was 55%. For the same molecule, the “Compound A alone (% control)” value ([6]; 15 g/ha, Example 1B) was 83%, the “Compound A alone (% control)” value ([6]; 15 g/ha, Example 7) was 50% and the “Compound A alone (% control)” value ([6]; 15 g/ha, Example 8) was 50%. The “Compound A alone (% control)” value [7] was 80%, the “Compound A alone (% control)” value ([8]; 3.75 g/ha, Example 1B) was 10% and the “Compound A alone (% control)” value ([8]; 3.75 g/ha, Example 4) was 28%. The “Compound A alone (% control)” value ([8]; 7.5 g/ha, Example 1B) was 18%, the “Compound A alone (% control)” value ([8]; 7.5 g/ha, Example 13) was 30% and the “Compound A alone (% control)” value ([8]; 15 g/ha, Example 1B) was 45%. The “Compound A alone (% control)” value ([8]; 15 g/ha, Example 9) was 70%, the “Compound A alone (% control)” value ([8]; 30 g/ha, Example 1B) was 70% and the “Compound A alone (% control)” value ([9]; 3.75 g/ha, Example 1B) was 0%. The “Compound A alone (% control)” value ([9]; 3.75 g/ha, Example 4) was 15%, the “Compound A alone (% control)” value ([9]; 3.75 g/ha, Example 5) was 0% and the “Compound A alone (% control)” value ([9]; 3.75 g/ha, Example 9) was 0%. For the same molecule, the “Compound A alone (% control)” value ([9]; 3.75 g/ha, Example 10) was 4%, the “Compound A alone (% control)” value ([9]; 3.75 g/ha, Example 14) was 0% and the “Compound A alone (% control)” value ([9]; 7.5 g/ha, Example 1B) was 23%. For the same molecule, the “Compound A alone (% control)” value ([9]; 7.5 g/ha, Example 5) was 8%, the “Compound A alone (% control)” value ([9]; 7.5 g/ha, Example 9) was 5% and the “Compound A alone (% control)” value ([9]; 7.5 g/ha, Example 10) was 15%. For the same molecule, the “Compound A alone (% control)” value ([9]; 15 g/ha, Example 1B) was 55%, the “Compound A alone (% control)” value ([9]; 15 g/ha, Example 5) was 58% and the “Compound A alone (% control)” value ([10]; 3.75 g/ha, Example 1B) was 25%. The “Compound A alone (% control)” value ([10]; 3.75 g/ha, Example 7) was 10%, the “Compound A alone (% control)” value ([10]; 3.75 g/ha, Example 8) was 10% and the “Compound A alone (% control)” value ([10]; 3.75 g/ha, Example 12) was 0%. The “Compound A alone (% control)” value ([10]; 7.5 g/ha, Example 1B) was 35%, the “Compound A alone (% control)” value ([10]; 7.5 g/ha, Example 4) was 50% and the “Compound A alone (% control)” value ([10]; 7.5 g/ha, Example 10) was 20%. For the same molecule, the “Compound A alone (% control)” value ([10]; 7.5 g/ha, Example 13) was 10%, the “Compound A alone (% control)” value ([10]; 7.5 g/ha, Example 14) was 5% and the “Compound A alone (% control)” value ([10]; 15 g/ha, Example 1B) was 40%. For the same molecule, the “Compound A alone (% control)” value ([10]; 15 g/ha, Example 10) was 50%, the “Compound A alone (% control)” value ([10]; 15 g/ha, Example 14) was 10% and the “Compound A alone (% control)” value ([10]; 30 g/ha, Example 5) was 68%. The “Compound A alone (% control)” value ([10]; 30 g/ha, Example 12) was 53%, the “Compound A alone (% control)” value ([11]; Example 1A) was 5% and the “Compound A alone (% control)” value ([11]; Example 2) was 15%. For the same molecule, the “Compound A alone (% control)” value ([12]; 3.75 g/ha, Example 1A) was 0%, the “Compound A alone (% control)” value ([12]; 3.75 g/ha, Example 3) was 0% and the “Compound A alone (% control)” value ([12]; 7.5 g/ha, Example 1A) was 5%. The “Compound A alone (% control)” value ([12]; 7.5 g/ha, Example 3) was 0%, the “Compound A alone (% control)” value ([13]; 3.75 g/ha, Example 1A) was 0% and the “Compound A alone (% control)” value ([13]; 7.5 g/ha, Example 1A) was 10%. The “Compound A alone (% control)” value ([13]; 7.5 g/ha, Example 2) was 5%, the “Compound A alone (% control)” value ([13]; 15 g/ha, Example 1A) was 60% and the “Compound A alone (% control)” value [14] was 10%. For the same molecule, the “Compound A alone (% control)” value [15] was 50%, the “Compound A alone (% control)” value ([16]; 3.75 g/ha, Example 1A) was 13% and the “Compound A alone (% control)” value ([16]; 3.75 g/ha, Example 2) was 0%. For the same molecule, the “Compound A alone (% control)” value ([16]; 7.5 g/ha, Example 1A) was 33%, the “Compound A alone (% control)” value ([16]; 7.5 g/ha, Example 2) was 23% and the “Compound A alone (% control)” value ([16]; 15 g/ha, Example 2) was 60%. The “Compound A alone (% control)” value ([17]; 3.75 g/ha, Example 1A) was 63%, the “Compound A alone (% control)” value ([17]; 3.75 g/ha, Example 2) was 0% and the “Compound A alone (% control)” value ([17]; 7.5 g/ha, Example 2) was 15%.
